Measured values as given in patent publication US20220054494A1, “METHODS FOR TREATING BLADDER AND URETHRA DYSFUNCTION AND DISEASE” (University of Pittsburgh - Of the Commonwealth System of …, priority 2019, published 2022).
“Also recorded” adds a separate entry of the source.

What was measured:
α-SMA = assay: Western immunoblotting, α-SMA; format: in vivo, rat; conditions: aged rats; oral 8-AG 5 mg/kg/day, 6 weeks
Protocol: Western immunoblotting: Following the testing paradigms, rats were deeply anesthetized, bladders as well as the proximal urethra were removed, and one half of each preparation was homogenized using Lysing Matrix D in a FastPrep 24 instrument (MP Biomedicals, Solon, Ohio) in HBSS [5 mM KCl, 0.3 mM KH2PO4, 138 mM NaCl, 4 mM NaHO3, 0.3 mM Na2HCO3, 0.3 mM Na2HPO4, 5.6 mM glucose, and 10 mM Hepes, pH 7.4 containing a complete protease inhibitor cocktail (1 tablet/10 ml, ROCHE®, Indianapolis, Ind.) and a phosphatase inhibitor cocktail (SIGMA®, 1:100)]. After centrifugation (13000 rpm; 15 min at 4° C.), the membrane protein fraction was prepared by suspending the membrane pellets in lysis buffer containing 0.3 M NaCl, 50 mM Tris-HCl (pH 7.6), and 0.5% Triton X-100 and the same concentration of protease inhibitors as above. The suspensions were incubated on ice and centrifuged (13000 rpm; 15 min at 4° C.). The protein concentrations of the combined supernatants were determined using the PIERCE® BCA protein assay (THERMO SCIENTIFIC®, Rockford, Ill.). […] As a loading control, total protein per sample was determined using Bio-Rad Stain Free SDS-PAGE gel technology. UV-activated protein fluorescence was imaged on a CHEMIDOC® MP (BIO-RAD®). […] The volume (intensity) of each protein species was determined and normalized to total protein using Image Lab software (BIO-RAD®). […]

[1] = test system: dynamin-related protein (DRP-1); assay: Western immunoblotting, DRP-1; format: in vivo, rat; conditions: aged rats; oral 8-AG 5 mg/kg/day, 6 weeks
Protocol: Western immunoblotting: One half of each bladder preparation was homogenized using Lysing Matrix D in a FastPrep 24 instrument (MP Biomedicals, Solon, Ohio) in HBSS (5 mM KCl, 0.3 mM KH2PO4, 138 mM NaCl, 4 mM NaHO3, 0.3 mM Na2HCO3, 0.3 mM Na2HPO4, 5.6 mM glucose and 10 mM Hepes, pH 7.4) containing complete protease inhibitor cocktail (1 tablet/10 ml, ROCHE®, Indianapolis, Ind.)) and phosphatase inhibitor cocktail (SIGMA®, 1:100). After centrifugation (13000 rpm; 15 min at 4° C.), the membrane protein fraction was prepared by suspending the membrane pellets in lysis buffer containing 0.3 M NaCl, 50 mM Tris-HCl (pH 7.6) and 0.5% Triton X-100 and the same concentration of protease inhibitors as above. The suspensions were incubated on ice and centrifuged (13000 rpm; 15 min at 4° C.). The protein concentrations of the combined supernatants were determined using the PIERCE® BCA protein assay (THERMO SCIENTIFIC®, Rockford, Ill.). […] As a loading control, total protein per sample was determined using Bio-Rad® Stain Free SDS-PAGE gel technology. UV-activated protein fluorescence was imaged on a CHEMIDOC® MP (BIO-RAD®). […] The volume (intensity) of each protein species was determined and normalized to total protein using Image Lab software (BIO-RAD®).

Nc1nc2[nH]c(N)nc2c(=O)[nH]1 [8-AG, 8-Aminoguanine]
α-SMA expression in detrusor (α-SMA): increasing expression toward younger state; also recorded: normalized; also recorded: restored these biomarkers to that of a younger state | α-SMA expression in urethra (α-SMA): increasing expression toward younger state; also recorded: normalized to a younger state | DRP-1 in bladder mucosa [1]: reversed or restored to levels similar to the younger state; also recorded: restored changes similar to a younger state
